IC50 data for twelve molecules are collected here from ChEMBL document CHEMBL4422625, “Structure Elucidation, Conformation, and Configuration of Cytotoxic 6-Heptyl-5,6-dihydro-2 H-pyran-2-ones from Hyptis Species and Their Molecular Docking to α-Tubulin” (J Nat Prod, 2019).

The structures appear in SMILES notation.

Holding throughout (type): functional, cell-based
Assay [1] deals with HeLa. As to the kind of experiment: Cytotoxicity against human HeLa cells after 48 hrs by sulforhodamine B assay.
In assay [2] the test system is HCT-15. As to the kind of experiment: Cytotoxicity against human HCT15 cells after 48 hrs by sulforhodamine B assay. The conditions noted are these: HCT-15, 48 h.
For assay [3], the system named is MCF7. As to the kind of experiment: Cytotoxicity against human MCF7 cells after 48 hrs by sulforhodamine B assay. The conditions noted are these: MCF7, 48 h.

In the case of `CCCC[C@@H](/C=C\[C@@H]1OC(=O)C[C@@H](OC)[C@@H]1OC(C)=O)OC(C)=O`, the IC50 in assay [1], in assay [2] and in assay [3] was more than 10 µM in each case.

As for `CCCC[C@H](/C=C\[C@@H]1OC(=O)C=C[C@@H]1O)OC(C)=O`, the IC50 in assay [1] turned out to be 1.4 µM; in assay [2], 9.5 µM; in assay [3], 1.3 µM.

In the case of `CCCC[C@H](O)/C=C\[C@@H]1OC(=O)C=C[C@@H]1O`, the IC50 in assay [1] came out at 6.2 µM; in assay [2], 7.4 µM; in assay [3], 5.9 µM.

Turning to `CCCC[C@H](O)/C=C\[C@@H]1OC(=O)C[C@@H](OC)[C@@H]1O`, the IC50 in assay [1], in assay [2] and in assay [3] was more than 10 µM in each case.

Take `CCCC[C@H](/C=C\[C@@H]1OC(=O)C=C[C@@H]1OC(C)=O)OC(C)=O`: the values for the IC50 in assay [1], in assay [2] and in assay [3] were 0.7 µM, 0.8 µM and 0.5 µM, respectively.

Turning to `CCCC[C@H](OC(C)=O)[C@@H](O)[C@H](O)[C@@H]1OC(=O)C=C[C@@H]1OC(C)=O`, the results for the IC50 in assay [1], in assay [2] and in assay [3] were 6.9 µM, 9.9 µM and 9.8 µM, respectively.

For `CCCC[C@H](OC(C)=O)[C@@H](OC(C)=O)[C@H](OC(C)=O)[C@@H]1OC(=O)C=C[C@@H]1OC(C)=O`, the IC50 in assay [1] was 2.7 µM; in assay [2], more than 10 µM; in assay [3], 7.7 µM.

For `CCCC[C@@H](/C=C\[C@@H]1OC(=O)C=C[C@@H]1OC(C)=O)OC(C)=O` [PECTINOLIDE A], the figures for the IC50 in assay [1], in assay [2] and in assay [3] were 3.2 µM, 5.7 µM and 3.2 µM, respectively.

As for `CCCC[C@H](O)/C=C\[C@@H]1OC(=O)C=C[C@@H]1OC(C)=O` [PECTINOLIDE B], the half-maximal inhibitory concentration (IC50) was 4.1 µM in assay [1], 5.2 µM in assay [2] and 9.3 µM in assay [3].

With `CCCC[C@@H](/C=C\[C@@H]1OC(=O)C=C[C@@H]1O)OC(C)=O` [PECTINOLIDE C], the IC50 in assay [1] came out at 0.3 µM; in assay [2], 2.3 µM; in assay [3] it was 1 µM.

Consider `C/C=C/C[C@H](C)[C@@H](OC)[C@@H](C)[C@H](O)C[C@H]1OC(=O)C=C[C@H]1CC` [PIRONETIN], for which the IC50 is 0.092 µM in assay [1], less than 0.015 µM in assay [2] and 0.015 µM in assay [3].

For `CC[C@]1(O)C[C@@H]2CN(CCc3c([nH]c4ccccc34)[C@@](C(=O)OC)(c3cc4c(cc3OC)N(C)[C@H]3[C@@](O)(C(=O)OC)[C@H](OC(C)=O)[C@]5(CC)C=CCN6CC[C@]43[C@@H]65)C2)C1` [VINBLASTINE], the half-inhibitory concentration (IC50) was 0.011 µM in assay [1], 0.011 µM in assay [2] and 0.012 µM in assay [3].
